Measured values from patent US5721265A, “Fluorinated 2-nitroimidazole analogs for detecting hypoxic tumor cells” (priority 1995, dated 1998).
Values after ≈ are worked out from the molar mass of the structure shown.

Key:
[1] = solubility in 0.9% saline solution
C3H-mammary tumor = assay: SR 4554 retention and oxygen electrode measurement in C3H-mammary tumor; assay type: in vivo, mouse
Protocol: (§1) Tumor oxygenation measurements were performed 3 hours after SR 4554 administration using a polarographic needle oxygen electrode.

[2] = system: murine and human tumor xenografts; assay: retention of 19F signal in murine and human tumor xenografts by MRS; assay type: in vivo, mouse; human
Protocol: In addition to the above experiment, more extensive in vivo experiments have been performed. In order to assess the oxygenation status of various murine and human tumor xenografts, the retention of ^19 F signal as measured by MRS was evaluated following SR 4554 administration. The data shown in FIG. 8 represent the mean ±SD of the ratios of ^19 F retention (μmol/g) at 6 hrs relative to 45 mins. RIF1 (fibrosarcoma), EMT6 ([…]) and KHT (adenocarcinoma) are murine tumors whereas HT29 (colon carcinoma), BB (colon carcinoma), WIL (non-small cell lung carcinoma) and HN5 (squamous cell carcinoma of the head and neck) are human tumor xenografts. Importantly, the data illustrates the varying degree of retention of SR 4554 by the different tumors.

[3] = system: cytochrome P450 reductase; assay: reduction by purified rat cytochrome P450 reductase under hypoxia; assay type: in vitro ADME; details: 100% nitrogen
Source text: (§2) SR 4554 was reduced by mouse liver microsomes as well as purified rat and human cytochrome P450 reductase under hypoxia (100% nitrogen).

SCCVII tumor = assay: SR 4554 retention and oxygen electrode measurement in SCCVII tumor; assay type: in vivo
Protocol: as §1

[4] = system: cytochrome P450 reductase; assay: reduction by purified human cytochrome P450 reductase under hypoxia; assay type: in vitro ADME; details: 100% nitrogen
Source text: as §2

SMILES: O=C(Cn1ccnc1[N+](=O)[O-])NCC(O)C(F)(F)F (racemic) [SR 4554]
- solubility [1]: 23 mM (≈ 6490 µg/mL)
- SR 4554 Retention (mean ± SD) (C3H-mammary tumor): 0.79 +/- 0.36
- retention in human tumor xenografts vs murine tumors (6 hrs relative to 45 mins) ([2]; HT29, BB, WIL, HN5 vs RIF1, EMT6, KHT): Apart from the WIL tumor, the retention of the drug in human tumor xenografts were lower than for the murine tumors
- trend of retention with hypoxic fraction ([2]; murine and human tumors): tumors which are known to have a greater hypoxic fraction retained more SR 4554
- reduced under hypoxia [3]: reduced
- SR 4554 Retention (mean ± SD) (SCCVII tumor): 0.57 +/- 0.14
- reduced under hypoxia [4]: reduced
